# pIC50: −log10 of the molar value.
# System: not given
# Assay: not given
# Details: not given
row,SMILES,melting point [°C]
1,CN(CCCc1ccc(CN)cc1)CCNS(=O)(=O)c1ccc2ccccc2c1Cl [Compound 20],221.5 to 222.7
2,NCc1ccc(CCCNCCNC(=O)c2ccc3ncccc3c2)cc1 [Compound 13],269.5 to 271.2
3,CN(CCCc1ccc(CN)cc1)CCNC(=O)c1cc2cc(Cl)ccc2[nH]1 [Compound 58],166.4 to 170
4,NCc1ccc(CCCNCCNS(=O)(=O)c2ccc3c(c2)CCC3)cc1 [Compound 7],199 to 199.7
5,CN(CCCc1ccc(CN)cc1)CCNS(=O)(=O)c1ccc2ccccc2c1 [Compound 17],91.6 to 92
6,NCc1ccc(CCCNCCNS(=O)(=O)c2ccc3ccccc3c2Cl)cc1 [Compound 4],264.3 to 265.6
7,CN(CCCc1ccc(CN)cc1)CCN(C)C(=O)c1cc2cc(Cl)ccc2[nH]1 [Compound 87],190.2 to 191.4
8,NCc1ccc(CCCNCCNS(=O)(=O)c2ccc3sccc3c2)cc1 [Compound 5],264.2 to 265.4
9,NCc1ccc(CCCNCCNS(=O)(=O)c2ccc3c(c2)CNCC3)cc1 [Compound 9],233.9 to 234.5
10,NCc1ccc(CCCNCCNC(=O)c2ccc3ccccc3c2)cc1 [Compound 11],69.7 to 72.2

# Target: T1, β-tryptase (Homo sapiens, UniProt Q15661)
# T1 construct: purchased Promega Corporation
# T1 sequence (Q15661 31-275): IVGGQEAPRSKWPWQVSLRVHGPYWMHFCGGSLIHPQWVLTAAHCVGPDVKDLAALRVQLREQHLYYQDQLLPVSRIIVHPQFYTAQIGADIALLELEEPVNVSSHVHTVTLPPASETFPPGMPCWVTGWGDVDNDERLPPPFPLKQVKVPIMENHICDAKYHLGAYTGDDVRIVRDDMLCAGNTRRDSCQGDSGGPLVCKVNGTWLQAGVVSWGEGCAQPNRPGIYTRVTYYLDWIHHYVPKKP
# Assay: β-Tryptase Inhibition Test
# Type: biochemical
# Details: not given
# Procedure: Sixty μL of a tris-hydrochloric acid buffer (pH 7.5, containing 200 ng/mL of heparin) was added to 20 μL of β-tryptase (manufactured by Promega Corporation) adjusted to 100 ng/mL with the same buffer. Then, 1 μL of a dimethyl sulfoxide (hereinafter, abbreviated to DMSO) solution as a test compound adjusted to a concentration 100 times as high as the final concentration was added to the mixture. After that, 20 μL of a 0.5 mM synthetic substrate Boc-Phe-Ser-Arg-MCA (manufactured by Peptide Institute, Inc) was added to the mixture, and the whole was reacted at 25° C. for 1 hour, followed by the addition of 100 μL of 20% acetic acid for stopping the reaction. Measured was fluorescence of free MCA generated by laser light with an excitation wavelength of 355 nm (fluorescent wavelength=460 nm, hereinafter abbreviated to F 460 nm).
# Δ fluorescence count value (a fluorescence count value after an enzyme reaction—a fluorescence count value before the enzyme reaction) was used for a measure of an enzyme inhibition reaction of a drug, and the enzyme inhibition reaction was evaluated in terms of a suppression rate calculated by the following equation.
# A=Δ F 460 nm of a mixture (control) of a substrate containing 1% DMSO and an enzyme
# B=Δ F 460 nm of a mixture of a substrate containing a drug dissolved in DMSO and an enzyme
# C=Δ F 460 nm of a mixture (blank) containing 1% DMSO and a substrate
# Suppression rate (%)=(A−B)×100/(A−C)
# The β-tryptase inhibitory activity was measured by the method described above.
row,SMILES,pIC50
1,NCc1ccc(CCCNCCNS(=O)(=O)c2ccc3ccccc3c2)cc1 [Compound 1],7.07
2,CN(CCCc1ccc(CN)cc1)CCNS(=O)(=O)c1ccc2ccccc2c1 [Compound 17],6.92

# Same assay, conditions: Enzyme Inhibition IC50 Tryptase, selectivity test, Table 7
row,SMILES,pIC50
1,NCc1ccc(CCCNCCNS(=O)(=O)c2ccc3ccccc3c2)cc1 [Compound 1],7.07
2,CN(CCCc1ccc(CN)cc1)CCNS(=O)(=O)c1ccc2ccccc2c1 [Compound 17],6.92

# Same assay, conditions: Tryptase Inhibiting Activity IC50, substrate Boc-Phe-Ser-Arg-MCA, 25° C., 1 hour
row,SMILES,pIC50
1,NCc1ccc(CCCNCCNS(=O)(=O)c2ccc3c(c2)CCC3)cc1 [Compound 7],6.70
2,NCc1ccc(CCCNCCNS(=O)(=O)c2ccc3sccc3c2)cc1 [Compound 5],6.68
3,NCc1ccc(CCCNCCNS(=O)(=O)c2ccc3c(c2)CNCC3)cc1 [Compound 9],6.72

# Same assay, conditions: read-out: β-tryptase inhibitory activity in terms of IC50
row,SMILES,pIC50
1,CN(CCCc1ccc(CN)cc1)CCNC(=O)c1cc2cc(Br)ccc2[nH]1 [compound 61],≥ 8.00
2,CN(CCCc1ccc(CN)cc1)CCN(C)C(=O)c1cc2cc(Cl)ccc2[nH]1 [compound 87],≥ 8.00
3,CN(CCCc1ccc(CN)cc1)CCNC(=O)c1ccc2cc(Br)ccc2c1 [compound 41],≥ 8.00
4,CC(=O)c1ccc2[nH]c(C(=O)NCCN(C)CCCc3ccc(CN)cc3)cc2c1 [compound 70],≥ 8.00
5,CN(CCCc1ccc(CN)cc1)CCNC(=O)c1ccc2cc[nH]c2c1 [compound 53],≥ 8.00
6,CN(CCCc1ccc(CN)cc1)CCNC(=O)c1cc2cc(Cl)ccc2[nH]1 [compound 58],≥ 8.00
7,Cc1ccc2[nH]c(C(=O)NCCN(C)CCCc3ccc(CN)cc3)cc2c1 [compound 55],≥ 8.00
8,CN(CCCc1ccc(CN)cc1)CCNC(=O)c1ccc2c(ccn2C)c1 [compound 73],≥ 8.00

# Same assay, conditions: selectivity test, Table 7; read-out: Enzyme Inhibition IC50 Tryptase
row,SMILES,pIC50
1,CN(CCCc1ccc(CN)cc1)CCNC(=O)c1cc2cc(Cl)ccc2[nH]1 [Compound 58],8.22
2,CC(=O)c1ccc2[nH]c(C(=O)NCCN(C)CCCc3ccc(CN)cc3)cc2c1 [Compound 70],8.10
3,CN(CCCc1ccc(CN)cc1)CCNC(=O)c1cc2cc(OCc3ccccc3)ccc2[nH]1 [Compound 72],7.82
4,CN(CCCc1ccc(CN)cc1)CCNC(=O)c1ccc2cc(Br)ccc2c1 [Compound 41],8.10
5,Cc1ccc2[nH]c(C(=O)NCCN(C)CCCc3ccc(CN)cc3)cc2c1 [Compound 55],8.30
6,CN(CCCc1ccc(CN)cc1)CCNC(=O)c1cc2cc(Br)ccc2[nH]1 [Compound 61],8.22
7,NCc1ccc(CCCNCCNC(=O)c2ccc3ccccc3c2)cc1 [Compound 11],6.82

# Same assay, conditions: substrate Boc-Phe-Ser-Arg-MCA, 25° C., 1 hour; read-out: Tryptase Inhibiting Activity IC50
row,SMILES,pIC50
1,CN(CCCc1ccc(CN)cc1)CCNC(=O)c1ccc2c(ccn2C)c1 [Compound 73],9.00
2,CN(CCCc1ccc(CN)cc1)CCNS(=O)(=O)c1ccc2ccccc2c1Cl [Compound 20],7.82
3,CN(CCCc1ccc(CN)cc1)CCNC(=O)c1sc2ccccc2c1Cl [Compound 49],7.82
4,NCc1ccc(CCCNCCNC(=O)c2ccc3ncccc3c2)cc1 [Compound 13],6.72
5,CN(CCCc1ccc(CN)cc1)CCNC(=O)c1cc2cc(C(=O)O)ccc2[nH]1 [Compound 69],7.26
6,NCc1ccc(CCCN(CCNS(=O)(=O)c2ccc3ccccc3c2)CCC(=O)O)cc1 [Compound 33],6.36
7,CN(CCCc1ccc(CN)cc1)CCNC(=O)c1cc2cc(F)ccc2[nH]1 [Compound 62],7.85
8,CN(CCCc1ccc(CN)cc1)CCN(C)C(=O)c1cc2cc(Cl)ccc2[nH]1 [Compound 87],9.00
9,CN(CCCc1ccc(CN)s1)CCNC(=O)c1cc2ccccc2s1 [Compound 90],6.70
10,CN(CCCc1ccc(CN)cc1)CCNCc1cc2ccccc2s1 [Compound 91],6.51
11,CCN(CCCc1ccc(CN)cc1)CCNS(=O)(=O)c1ccc2ccccc2c1 [Compound 18],6.85
12,CN(CCCc1ccc(CN)nc1)CCNC(=O)c1ccc2[nH]ccc2c1 [Compound 89],6.85
13,CN(CCCc1ccc(CN)cc1)CCNC(=O)c1ccc2occc2c1 [Compound 46],7.19
14,Cc1ccc2[nH]c(C(=O)NCCN(C)CCCc3ccc(CN)cc3)cc2c1 [Compound 55],8.30
15,CN(CCCc1ccc(CN)cc1)CCNC(=O)c1ccc2cc[nH]c2c1 [Compound 53],8.30
16,CN(CCCc1ccc(CN)cc1)CCNC(=O)c1c[nH]c2ccccc12 [Compound 51],7.00
17,CN(CCCc1ccc(CN)cc1)CCNC(=O)c1cc2ccccc2o1 [Compound 45],7.70
18,CN(CCCc1ccc(CN)cc1)CCNC(=O)c1cc2cc(Br)ccc2[nH]1 [Compound 61],8.22
19,CN(CCCc1ccc(CN)cc1)CCNC(=O)c1nc2ccccc2s1 [Compound 77],7.14
20,CN(CCCc1ccc(CN)cc1)CCNC(=O)c1ccc2ncsc2c1 [Compound 78],7.70
21,NCc1ccc(CCCNCCNC(=O)c2ccc3ccccc3c2)cc1 [Compound 11],6.82
22,CN(CCCc1ccc(CN)cc1)CCNC(=O)c1cc2cc(C(F)(F)F)ccc2[nH]1 [Compound 63],7.49

# System: trypsin
# Assay: Trypsin Inhibition Test
# Type: biochemical
# Details: substrate S-2222, 37° C., 20 minutes; read-out: Enzyme Inhibition IC50 Trypsin
# Procedure: Added to 158 μL of a 20 mM tris-hydrochloric acid buffer (pH 7.5, containing 130 mM NaCl, 3.75 mM CaCl2, and 0.1% BSA) was 20 μL of a trypsin solution (manufactured by Sigma, a stock solution of […] was adjusted to 100 ng/mL with 0.001 N HCl containing 0.1% BSA). After that, 2 μL of a DMSO solution as a test compound adjusted to a concentration 100 times as high as the final concentration was added to the mixture, and the whole was reacted at 37° C. for 3 minutes. Then, 20 μL of a 2 mM synthetic substrate S-2222 (manufactured by Daiichi Pure Chemicals Co., Ltd.) was added to the mixture, and the whole was reacted at 37° C. for an additional 20 minutes, followed by addition of 100 μL of 20% acetic acid for stopping the reaction. After that, absorbance at 405 nm (hereinafter, abbreviated to OD 405 nm) was measured with a microplate reader.
row,SMILES,pIC50
1,CN(CCCc1ccc(CN)cc1)CCNC(=O)c1cc2cc(Cl)ccc2[nH]1 [Compound 58],< 4.00
2,NCc1ccc(CCCNCCNS(=O)(=O)c2ccc3ccccc3c2)cc1 [Compound 1],< 4.00
3,CC(=O)c1ccc2[nH]c(C(=O)NCCN(C)CCCc3ccc(CN)cc3)cc2c1 [Compound 70],< 4.00
4,CN(CCCc1ccc(CN)cc1)CCNS(=O)(=O)c1ccc2ccccc2c1 [Compound 17],< 4.52
5,NCc1ccc(CCCNCCNS(=O)(=O)c2ccc3ccccc3c2Cl)cc1 [Compound 4],< 4.00
6,CN(CCCc1ccc(CN)cc1)CCNC(=O)c1cc2cc(OCc3ccccc3)ccc2[nH]1 [Compound 72],< 4.00
7,CN(CCCc1ccc(CN)cc1)CCNC(=O)c1ccc2cc(Br)ccc2c1 [Compound 41],< 4.00
8,Cc1ccc2[nH]c(C(=O)NCCN(C)CCCc3ccc(CN)cc3)cc2c1 [Compound 55],< 4.00
9,CN(CCCc1ccc(CN)cc1)CCNC(=O)c1cc2cc(Br)ccc2[nH]1 [Compound 61],< 4.00
10,NCc1ccc(CCCNCCNC(=O)c2ccc3ccccc3c2)cc1 [Compound 11],< 4.52

# Target: T2, FXa (Homo sapiens, UniProt P00742)
# T2 construct: FXa (manufactured by Enzyme Research Ltd.); purchased Enzyme Research Ltd
# T2 sequence (P00742 235-488 limits assumed): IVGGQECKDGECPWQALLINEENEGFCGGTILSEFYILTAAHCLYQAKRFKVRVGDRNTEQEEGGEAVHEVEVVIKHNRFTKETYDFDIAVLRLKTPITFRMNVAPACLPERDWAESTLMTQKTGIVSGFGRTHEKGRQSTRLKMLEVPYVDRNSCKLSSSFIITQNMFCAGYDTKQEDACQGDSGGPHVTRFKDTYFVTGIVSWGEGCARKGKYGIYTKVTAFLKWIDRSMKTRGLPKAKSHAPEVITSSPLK
# T2 sequence (P00742 41-179 partner limits assumed): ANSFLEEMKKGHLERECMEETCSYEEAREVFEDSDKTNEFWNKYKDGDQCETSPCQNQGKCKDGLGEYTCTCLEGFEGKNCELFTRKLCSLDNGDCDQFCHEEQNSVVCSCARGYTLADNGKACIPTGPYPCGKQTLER
# Assay: FXa Inhibition Test
# Type: biochemical
# Details: read-out: FXa inhibiting activity in terms of IC50
# Procedure: 158 μL of a 20 mM tris-hydrochloric acid buffer (pH 7.5, containing 130 mM NaCl, 3.75 mM CaCl2, and 0.1% BSA) was placed on a 96 well microplate, and 20 μL of FXa (manufactured by Enzyme Research Ltd.) adjusted to 0.1 U/mL with the buffer was added to the buffer. Then, 2 μL of a DMSO solution as a test compound adjusted to a concentration 100 times as high as the final concentration was added to the mixture, and the whole was reacted at 37° C. for 3 minutes. After that, 20 μL of an S-2222 substrate solution adjusted to 2 mM with the buffer was added to the mixture, and the whole was reacted at 37° C. for 30 minutes, followed by addition of 100 μL of 20% acetic acid for stopping the reaction. After that, OD 405 nm was measured with a microplate reader.
row,SMILES,pIC50
1,NCc1ccc(CCCNCCNS(=O)(=O)c2ccc3ccccc3c2Cl)cc1 [compound 4],≤ 4.00
2,CN(CCCc1ccc(CN)cc1)CCNC(=O)c1cc2cc(Br)ccc2[nH]1 [compound 61],≤ 4.00
3,CN(CCCc1ccc(CN)cc1)CCNC(=O)c1ccc2cc(Br)ccc2c1 [compound 41],≤ 4.00
4,CC(=O)c1ccc2[nH]c(C(=O)NCCN(C)CCCc3ccc(CN)cc3)cc2c1 [compound 70],≤ 4.00
5,CN(CCCc1ccc(CN)cc1)CCNC(=O)c1cc2cc(Cl)ccc2[nH]1 [compound 58],≤ 4.00
6,Cc1ccc2[nH]c(C(=O)NCCN(C)CCCc3ccc(CN)cc3)cc2c1 [compound 55],≤ 4.00

# Same assay, conditions: substrate S-2222, 37° C., 30 minutes; read-out: Enzyme Inhibition IC50 FXa
row,SMILES,pIC50
1,CN(CCCc1ccc(CN)cc1)CCNC(=O)c1cc2cc(Cl)ccc2[nH]1 [Compound 58],< 4.00
2,NCc1ccc(CCCNCCNS(=O)(=O)c2ccc3ccccc3c2)cc1 [Compound 1],< 4.00
3,CC(=O)c1ccc2[nH]c(C(=O)NCCN(C)CCCc3ccc(CN)cc3)cc2c1 [Compound 70],< 4.00
4,CN(CCCc1ccc(CN)cc1)CCNS(=O)(=O)c1ccc2ccccc2c1 [Compound 17],< 4.52
5,NCc1ccc(CCCNCCNS(=O)(=O)c2ccc3ccccc3c2Cl)cc1 [Compound 4],< 4.00
6,CN(CCCc1ccc(CN)cc1)CCNC(=O)c1cc2cc(OCc3ccccc3)ccc2[nH]1 [Compound 72],< 4.00
7,CN(CCCc1ccc(CN)cc1)CCNC(=O)c1ccc2cc(Br)ccc2c1 [Compound 41],< 4.00
8,Cc1ccc2[nH]c(C(=O)NCCN(C)CCCc3ccc(CN)cc3)cc2c1 [Compound 55],< 4.00
9,CN(CCCc1ccc(CN)cc1)CCNC(=O)c1cc2cc(Br)ccc2[nH]1 [Compound 61],< 4.00
10,NCc1ccc(CCCNCCNC(=O)c2ccc3ccccc3c2)cc1 [Compound 11],< 4.52
